Reference: patent publication US20180111893A1, “POLYCATIONIC AMPHIPHILES AND POLYMERS THEREOF AS ANTIMICROBIAL AGENTS AND METHODS USING SAME” (Temple University-Of The Commonwealth System of Higher …, priority 2015, published 2018)

Columns and labels:
[1] = tested on: MRSA biofilms (S. aureus USA300-0114); assay: Minimum biofilm eradication concentration (MBEC), regrowth assay; format: cell-based, Staphylococcus aureus; parameters: MBEC MRSA: unit not given here; details: for MBEC MRSA: Table 5, regrowth OD under 0.1 (italics: OD < 0.5)
Method: (§1) A regrowth assay was used to establish the MBEC of a compound to evaluate the antibiofilm activity. See also H. Ceri, M. Olson, D. Morck, D. Storey, R. Read, A. Buret, B. Olson, Methods Enzymol. 2001, 337, 377, which is incorporated by reference herein in its entirety.
(§2) To each well of a flat-bottomed 96-well plate (Corning 3370), 8 μL of overnight bacterial culture was brought to a volume of 200 μL with fresh media (BHI for MSSA and MRSA). Plates were incubated statically for 24 hours at 37° C. to establish biofilms. After 24 hours, the wells were carefully emptied by inverting the plate and gently shaking. A pre-mixed solution of media and compound stock solution was added to each well and plates were incubated at 37° C. 16 hours after pre-established biofilms were treated with compound, the media from each well was removed, biofilms were washed three times with 200 μL PBS to remove planktonic cells, and biofilms were incubated overnight at 37° C. in 200 μL of fresh media to allow any viable cells to continue growing. The wells were then vigorously pipetted to resuspend the biofilm cells and the OD at 595 nm was measured using a plate reader (POLARstar Omega, BMG Labtech). Biofilms reaching a final OD of less than 0.1 were considered eradicated and the lowest concentration of antibiotic corresponded to the MBEC. Four replicates were completed for each concentration of compound as well as positive and negative controls.

[2] = tested on: Staphylococcus aureus (MSSA) biofilms; assay: as above; format: cell-based; parameters: MBEC MSSA: unit not given here; details: Table 5; regrowth OD under 0.1 (italics: OD < 0.5)
Method: as §1, §2

red blood cells = format: cell-based, sheep
Method: To date, synthesized compounds have been evaluated against planktonic bacteria (E. coli, S. aureus, P. aeruginosa, E. facaelis) and bacterial biofilms (E. facaelis, S. aureus, MRSA); new compounds are similarly assessed. All compounds are also evaluated via a hemolysis assay to assess their ability to lyse red blood cells (RBC) (Nagamune et al., 2000, Toxicology in Vitro 14:139-147). The assay is conducted following a known protocol to determine the concentration of compound that causes 20% of RBCs to be lysed. […] All compounds are benchmarked against three commercial antiseptics—benzalkonium chloride, DDAC, and CHX (FIG. 1).
Hemolysis assays were performed according to a known method (Peng et al., 2011, Chem. Comm. 47:4896-4898). Defibrinated sheep blood was purchased from Hemostat Labs (DSB030). Compounds representative of each class were serially diluted in sterile PBS from stock solutions and incubated with resuspended blood cells. The OD of the final suspensions were measured directly using plate reader. TritonX (1% by volume) served as a positive control (100% lysis marker) and sterile PBS served as a negative control (0% lysis marker).

[3] = tested on: six bacteria (SA, HA-MRSA, CA-MRSA, EF, EC, PA); assay: MIC against the panel of bacteria tested; format: cell-based; details: quinine- and nicotine-derived QACs; in words
Method: (§3) As used herein, the term “minimum inhibitory concentration (MIC)” refers to the lowest concentration of an antimicrobial agent that will inhibit the visible growth of a microorganism after overnight incubation. MIC values against bacteria, for example, the Gram-positive Staphylococcus aureus and Enterococcus faecalis and the Gram-negative Escherichia coli and Pseudomonas aeruginosa were determined by standard methods. See also P. A. Wayne, Methods for Dilution Antimicrobial Tests for Bacteria that Grow Aerobically; Approved Standard, Ninth Edition, 2012, CLSI Document M07-A9, Vol. 32 No. 2, which is incorporated by reference herein in its entirety.
The complete set of MIC values against six bacteria [Staphylococcus aureus (SA), hospital-acquired methicillin-resistant SA (HA-MRSA), community-acquired methicillin-resistant SA (CA-MRSA), Enterococcus faecalis (EF), Escherichia coli (EC), and Pseudomonas aeruginosa (PA)] is presented in Table 3, wherein multiQACs are grouped with their monoQAC counterparts. The dye-based QACs with greatest inhibition of the complete range of Gram-positive and Gram-negative bacteria featured bis- or tris-quaternization, with the optimal alkyl total ranging from 17-24 carbons. For example, comparison of two biscationic series -LMG-n,1 and LMG-n,n—evaluates the effect of total alkyl chain length in retention of efficacy against the more challenging CA-MRSA and the Gram-negative strains EC and PA.
(§4) Compounds were serially diluted two-fold from a 10% DMSO/aqueous stock solution to yield twelve test concentrations. Overnight S. aureus, E. faecalis, E. coli, P. aeruginosa, CA-MRSA, and HA-MRSA cultures diluted to ca. 10^6 cfu/mL in Mueller-Hinton media and 100 μL were inoculated into each well of a U-bottom 96-well plate (BD Biosciences, BD351177) containing 100 μL of compound solution. Plates were incubated statically at 37° C. for 72 hours upon which time wells were evaluated visually for bacterial growth. The MIC was determined as the lowest concentration of compound resulting in no bacterial growth visible to the naked eye, based on the majority of three independent experiments. Positive and negative DMSO/aqueous solution and media controls were conducted for each trial. See Peng et al., 2011, Chem. Comm. 47:4896-4898.

[4] = tested on: Staphylococcus aureus (SA; MSSA SH1000); assay: Minimum inhibitory concentration (MIC); format: cell-based; parameters: MIC MSSA: unit not given here; details: for MIC SA: Table 6
Method: as §3, §4
as §4, with “trial.” for “trial. See Peng et al., 2011, Chem. Comm. 47:4896-4898.”

[5] = tested on: community-acquired methicillin-resistant Staphylococcus aureus CA-MRSA (USA300-0114); assay: Minimum inhibitory concentration (MIC); format: cell-based; parameters: MIC MRSA: unit not given here; details: for MIC CA-MRSA: Table 6
Method: as §3, §4
as §4, with “trial.” for “trial. See Peng et al., 2011, Chem. Comm. 47:4896-4898.”

[6] = tested on: Pseudomonas aeruginosa (PAO1); assay: Minimum inhibitory concentration (MIC); format: cell-based
Method: as §3, §4
as §4, with “trial.” for “trial. See Peng et al., 2011, Chem. Comm. 47:4896-4898.”

[7] = tested on: Escherichia coli (MC4100); assay: Minimum inhibitory concentration (MIC); format: cell-based
Method: as §3, §4
as §4, with “trial.” for “trial. See Peng et al., 2011, Chem. Comm. 47:4896-4898.”

[8] = tested on: hospital-acquired methicillin-resistant Staphylococcus aureus HA-MRSA (ATCC 33591); assay: Minimum inhibitory concentration (MIC); format: cell-based; details: Table 6
Method: as §3, §4
as §4, with “trial.” for “trial. See Peng et al., 2011, Chem. Comm. 47:4896-4898.”

[9] = tested on: Enterococcus faecalis (OG1RF); assay: Minimum inhibitory concentration (MIC); format: cell-based; details: Table 6
Method: as §3, §4
as §4, with “trial.” for “trial. See Peng et al., 2011, Chem. Comm. 47:4896-4898.”

Row | SMILES | MBEC MRSA [1] | MBEC MSSA [2] | MIC SA [4] [µM] | MIC CA-MRSA [5] [µM] | MIC HA-MRSA [8] [µM] | MIC PA ([6]; Table 6) [µM] | MIC EF [9] [µM] | MIC EC ([7]; Table 6) [µM] | other results
1 | CCCCCCCCCCCCCCCC[N+]1(C)CCN(C)CCN(C)CC1.[Br-] [C-16,0,0] | >200 | >200 |  |  |  |  |  |  | 
2 | CCCCCCCCCCCCCCCC[N+]1(C)CC[N+](C)(C)CC[N+](C)(C)CC1 [C-16,1,1] | 200 | 200 |  |  |  |  |  |  | 
3 | CCCCCCCCCCCCCCCCCC[N+]1(C)CCN(C)CCN(C)CC1.[Br-] [C-18,0,0] | >200 | 200 |  |  |  |  |  |  | 
4 | CCCCCCCCCCCCCCCCCC[N+]1(C)CC[N+](C)(C)CC[N+](C)(C)CC1 [C-18,1,1] | >200 | >200 |  |  |  |  |  |  | 
5 | CCCCCCCCCCCCCCCCCCCC[N+]1(C)CCN(C)CCN(C)CC1.[Br-] [C-20,0,0] | >200 | >200 |  |  |  |  |  |  | 
6 | CCCCCCCCCCCCCCCCCCCC[N+]1(C)CC[N+](C)(C)CC[N+](C)(C)CC1 [C-20,1,1] | >200 | >200 |  |  |  |  |  |  | 
7 | CCCCCCCCCCCCCCCC[n+]1ccccc1 [Cetyl pyridinium chloride] |  |  |  |  |  |  |  |  | MBEC v MRSA ([1]; Table 2, pre-formed MRSA biofilms): 200 µM; Lysis20 (red blood cells; concentration at which 20% of RBCs are lysed): 8 µM; TI MRSA (red blood cells; therapeutic index, Lysis20/MIC v MRSA): 0.5; TI SA (red blood cells; therapeutic index, Lysis20/MIC v SA): 16
8 | C[n+]1cccc([C@@H]2CCC[N+]2(C)C)c1 [N-1,1] |  |  |  |  |  |  |  |  | antimicrobial activity [3]: essentially no antimicrobial activity
9 | CCCCCCCCCCC[N+](C)(C)CCN1CC[N+](C)(CCCCCCCCCCC)CC1 [P-11,0,11] | 200 | 100 |  |  |  |  |  |  | 
10 | CCCCCCCCCCCC[N+](C)(C)CCN1CC[N+](C)(CCCCCCCCCCCC)CC1 [P-12,0,12] | 200 | 200 |  |  |  |  |  |  | 
11 | CCCCCCCCCC[N+](C)(C)CCCN(CC[N+](C)(C)CCCCCCCCCC)CC[N+](C)(C)CCCCCCCCCC [T-10,10,10] | 200 | 100 |  |  |  |  |  |  | 
12 | CCCCCCCCCCC[N+](C)(C)CCN(CC[N+](C)(C)CCCCCCCCCCC)CC[N+](C)(C)CCCCCCCCCCC [T-11,11,11] | >200 | 200 |  |  |  |  |  |  | MIC MSSA ([4]; Table 5, S. aureus SH1000): 0.5; MIC MRSA ([5]; Table 5, S. aureus USA300-0114): 1; MIC PA ([6]; Table 5, P. aeruginosa PAO1): 2 mm; MIC EC ([7]; Table 5, E. coli MC4100): 1 mm
13 | CCCCCCCCCCCCCC[N+](C)(C)CCCN(CCC[N+](C)(C)CCCCCCCCCCCCCC)CCC[N+](C)(C)CCCCCCCCCCCCCC [sT-14,14,14,0] |  |  | 1 | 0.5 | 2 | 16 | 2 | 4 | 
14 | CCCCCCCCCCCCCC[N+](C)(C)CCC[N+](C)(CCC[N+](C)(C)CCCCCCCCCCCCCC)CCC[N+](C)(C)CCCCCCCCCCCCCC [sT-14,14,14,1] |  |  | 4 | 2 | 2 | 32 | 2 | 4 | 
15 | C=CC[N+](CCC[N+](C)(C)CCCCCCCCCCCCCC)(CCC[N+](C)(C)CCCCCCCCCCCCCC)CCC[N+](C)(C)CCCCCCCCCCCCCC [sT-14,14,14,3A] |  |  | 2 | 2 | 2 | 32 | 2 | 4 | 
16 | CCCCCCCCCCCCCCCC[N+](C)(C)CCCN(CCC[N+](C)(C)CCCCCCCCCCCCCCCC)CCC[N+](C)(C)CCCCCCCCCCCCCCCC.[Br-].[Br-].[Br-] [sT-16,16,16,0] |  |  | 8 | 4 | 16 | 32 | 16 | 16 | 
17 | C=CC[N+](CCC[N+](C)(C)CCCCCCCCCCCCCCCC)(CCC[N+](C)(C)CCCCCCCCCCCCCCCC)CCC[N+](C)(C)CCCCCCCCCCCCCCCC [sT-16,16,16,3A] |  |  | 4 | 4 | 16 | 63 | 8 | 16 | 
18 | CCCCCCCCCCCCCCCCCC[N+](C)(C)CCCN(CCC[N+](C)(C)CCCCCCCCCCCCCCCCCC)CCC[N+](C)(C)CCCCCCCCCCCCCCCCCC [sT-18,18,18,0] |  |  | 8 | 4 | 32 | 63 | 16 | 32 | 
19 | C=CC[N+](CCC[N+](C)(C)CCCCCCCCCCCCCCCCCC)(CCC[N+](C)(C)CCCCCCCCCCCCCCCCCC)CCC[N+](C)(C)CCCCCCCCCCCCCCCCCC [sT-18,18,18,3A] |  |  | 2 | 2 | 16 | 125 | 32 | 32 | 
